Measurements as given in patent US10213427B2 (Incyte Corporation, priority 2010, dated 2019).

Molecular target: FGFR3 enzyme (Millipore) (Homo sapiens (Human), UniProt P22607)
Assay: FGFR3 Enzymatic Assay
Assay type: biochemical
Settings: FRET peptide phosphorylation, 140 μM ATP
Procedure: The inhibitor potency of compounds of the invention was measured in an enzyme assay that measures peptide phosphorylation using FRET measurements to detect product formation. Inhibitors were serially diluted in DMSO and a volume of 0.5 μL was transferred to the wells of a 384-well plate. A 10 μL volume of FGFR3 enzyme (Millipore) diluted in assay buffer (50 mM HEPES, 10 mM MgCl2, 1 mM EGTA, 0.01% Tween-20, 5 mM DTT, pH 7.5) was added to the plate and pre-incubated for 5-10 minutes. Appropriate controls (enzyme blank and enzyme with no inhibitor) were included on the plate. […] The plate was incubated at 25° C. for 1 hr. […] The plate was allowed to equilibrate for ˜1 hr before scanning the wells on a PheraStar plate reader.
GraphPad prism3 was used to analyze the data. The IC50 values were derived by fitting the data to the equation for a sigmoidal dose-response with a variable slope. Y=Bottom+(Top−Bottom)/(1+10^((Log IC50−X)*HillSlope)) where X is the logarithm of concentration and Y is the response.

Sequence of FGFR3 enzyme (Millipore) (P22607 23-806): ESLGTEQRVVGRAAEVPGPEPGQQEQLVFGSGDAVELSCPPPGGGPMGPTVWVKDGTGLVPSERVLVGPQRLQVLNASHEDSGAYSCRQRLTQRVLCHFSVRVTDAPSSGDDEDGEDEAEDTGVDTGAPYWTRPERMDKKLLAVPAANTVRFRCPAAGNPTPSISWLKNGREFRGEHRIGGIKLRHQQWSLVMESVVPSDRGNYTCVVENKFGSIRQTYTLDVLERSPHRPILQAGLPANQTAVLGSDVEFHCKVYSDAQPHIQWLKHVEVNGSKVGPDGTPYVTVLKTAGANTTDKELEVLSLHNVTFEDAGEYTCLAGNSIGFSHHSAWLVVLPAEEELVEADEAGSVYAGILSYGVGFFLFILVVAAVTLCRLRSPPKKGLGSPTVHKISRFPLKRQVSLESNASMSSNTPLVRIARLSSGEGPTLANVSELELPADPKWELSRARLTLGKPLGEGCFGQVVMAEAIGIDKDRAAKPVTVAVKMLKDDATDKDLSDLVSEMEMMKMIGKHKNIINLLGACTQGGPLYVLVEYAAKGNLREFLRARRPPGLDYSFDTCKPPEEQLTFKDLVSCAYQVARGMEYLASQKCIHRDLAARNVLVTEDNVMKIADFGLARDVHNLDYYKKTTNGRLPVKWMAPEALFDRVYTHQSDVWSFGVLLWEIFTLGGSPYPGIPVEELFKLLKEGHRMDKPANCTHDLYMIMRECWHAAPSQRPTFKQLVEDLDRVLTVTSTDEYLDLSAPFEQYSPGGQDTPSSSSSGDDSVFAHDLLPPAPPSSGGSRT

Compound	IC50 [nM]
CC(C(=O)N1CCC(C#N)C1)c1ccc(-c2ccc3c(c2)ncn3-c2cccc(NC(=O)NCC(F)(F)F)c2)cc1 (stereo not drawn) [Example 19, N-[3-(5-{4-[2-(3-Cyanopyrrolidin-1-yl)-1-methyl-2-oxoethyl]phenyl}-1H-benzimidazol-1-yl)phenyl]-N′-(2,2,2-trifluoroethyl)urea]	< 10
CNC(=O)C(C)n1cc(-c2cnn3c(-c4cccc(NC(=O)NCC(F)(F)F)c4)cnc3c2)cn1 (stereo not drawn) [Example 55, N-Methyl-2-(4-{3-[3-({[(2,2,2-trifluoroethyl)amino]carbonyl}amino)phenyl]imidazo[1,2-b]pyridazin-7-yl}-1H-pyrazol-1-yl)propanamide]	< 10
O=C(NCC(F)(F)F)Nc1cccc(-c2cnc3cc(-c4cnn(C5CCN(C(=O)NCC6CCCO6)CC5)c4)cnn23)c1 (stereo not drawn) [Example 40, N-(tetrahydrofuran-2-ylmethyl)-4-(4-{3-[3-({[(2,2,2-trifluoroethyl)amino]carbonyl}amino)phenyl]imidazo[1,2-b]pyridazin-7-yl}-1H-pyrazol-1-yl)piperidine-1-carboxamide]	< 10
COCC(=O)N1CCC(n2cc(-c3cnn4c(-c5cccc(NC(=O)NCC(F)(F)F)c5)cnc4c3)cn2)CC1 [Example 30, N-[3-(7-{1-[1-(Methoxyacetyl)piperidin-4-yl]-1H-pyrazol-4-yl}imidazo[1,2-b]pyridazin-3-yl)phenyl]-N′-(2,2,2-trifluoroethyl)urea]	< 10
CNC(=O)C(C)c1ccc(-c2ccc3c(c2)ncn3-c2cccc(NC(=O)NCC(F)(F)F)c2)cc1 (stereo not drawn) [Example 14, N-Methyl-2-(4-{1-[3-({[(2,2,2-trifluoroethyl)amino]carbonyl}amino)phenyl]-1H-benzimidazol-5-yl}phenyl)propanamide]	< 10
CN(C)CC(=O)N1CC(CC#N)(n2cc(-c3cnn4c(-c5cccc(NC(=O)NCC(F)(F)F)c5)cnc4c3)cn2)C1 [Example 76, N-{3-[7-(1-{3-(Cyanomethyl)-1-[(dimethylamino)acetyl]azetidin-3-yl}-1H-pyrazol-4-yl)imidazo[1,2-b]pyridazin-3-yl]phenyl}-N′-(2,2,2-trifluoroethyl)urea]	< 10
Cn1ccc(S(=O)(=O)N2CCC(n3cc(-c4cnn5c(-c6cccc(NC(=O)NCC(F)(F)F)c6)cnc5c4)cn3)CC2)n1 [Example 31, N-{3-[7-(1-{1-[(1-methyl-1H-pyrazol-3-yl)sulfonyl]piperidin-4-yl}-1H-pyrazol-4-yl)imidazo[1,2-b]pyridazin-3-yl]phenyl}-N′-(2,2,2-trifluoroethyl)urea]	< 10
COC1CCN(C(=O)C(C)n2cc(-c3cnn4c(-c5cccc(NC(=O)NCC(F)(F)F)c5)cnc4c3)cn2)CC1 (stereo not drawn) [Example 69, N-[3-(7-{1-[2-(4-Methoxypiperidin-1-yl)-1-methyl-2-oxoethyl]-1H-pyrazol-4-yl}imidazo[1,2-b]pyridazin-3-yl)phenyl]-N′-(2,2,2-trifluoroethyl)urea]	< 10
CC(C(=O)N1CCC(O)CC1)c1ccc(-c2cnn3c(-c4cccc(NC(=O)NCC(F)(F)F)c4)cnc3c2)cc1 (stereo not drawn) [Example 102, N-[3-(7-{4-[2-(4-Hydroxypiperidin-1-yl)-1-methyl-2-oxoethyl]phenyl}imidazo[1,2-b]pyridazin-3-yl)phenyl]-N′-(2,2,2-trifluoroethyl)urea]	< 10
O=C(NCC(F)(F)F)Nc1cccc(-c2cnc3cc(-c4cnn(C5CCN(C(=O)C6(O)CC6)CC5)c4)cnn23)c1 [Example 43, N-{3-[7-(1-{1-[(1-hydroxycyclopropyl)carbonyl]piperidin-4-yl}-1H-pyrazol-4-yl)imidazo[1,2-b]pyridazin-3-yl]phenyl}-N′-(2,2,2-trifluoroethyl)urea]	< 10
O=C(NCC(F)(F)F)Nc1cccc(-c2cnc3cc(-c4cnn(C5CCN(C(=O)C(O)C(F)(F)F)CC5)c4)cnn23)c1 (stereo not drawn) [Example 49, N-(2,2,2-trifluoroethyl)-N′-[3-(7-{1-[1-(3,3,3-trifluoro-2-hydroxypropanoyl)piperidin-4-yl]-1H-pyrazol-4-yl}imidazo[1,2-b]pyridazin-3-yl)phenyl]urea]	< 10
O=C(NCC(F)(F)F)Nc1cccc(-n2cnc3cc(-c4cccc(C(=O)NCC5CCCO5)c4)ccc32)c1 (stereo not drawn) [Example 2, N-(Tetrahydrofuran-2-ylmethyl)-3-{1-[3-({[(2,2,2-trifluoroethyl)amino]carbonyl}amino)phenyl]-1H-benzimidazol-5-yl}benzamide]	< 10
CC(CC#N)n1cc(-c2cnn3c(-c4cccc(NC(=O)NCC(F)(F)F)c4)cnc3c2)cn1 (stereo not drawn) [Example 89, N-(3-{7-[1-(2-Cyano-1-methylethyl)-1H-pyrazol-4-yl]imidazo[1,2-b]pyridazin-3-yl}phenyl)-N′-(2,2,2-trifluoroethyl)urea]	< 10
CC1(C(=O)N2CCC(n3cc(-c4cnn5c(-c6cccc(NC(=O)NCC(F)(F)F)c6)cnc5c4)cn3)CC2)CC1 [Example 42, N-{3-[7-(1-{1-[(1-Methylcyclopropyl)carbonyl]piperidin-4-yl}-1H-pyrazol-4-yl)imidazo[1,2-b]pyridazin-3-yl]phenyl}-N′-(2,2,2-trifluoroethyl)urea]	< 10
CNC(=O)Nc1cccc(-c2cnc3cc(-c4cccc(C(=O)NCc5ccccc5F)c4)cnn23)c1 [Example 96, N-(2-Fluorobenzyl)-3-[3-(3-{[(methylamino)carbonyl]amino}phenyl)imidazo[1,2-b]pyridazin-7-yl]benzamide]	> 25
Cn1ccc(S(=O)(=O)N2CCC(n3cc(-c4ccc5c(c4)ncn5-c4cccc(NC(=O)NCC(F)(F)F)c4)cn3)CC2)n1 [Example 24, N-{3-[5-(1-{1-[(1-Methyl-1H-pyrazol-3-yl)sulfonyl]piperidin-4-yl}-1H-pyrazol-4-yl)-1H-benzimidazol-1-yl]phenyl}-N′-(2,2,2-trifluoroethyl)urea]	< 10
CC(C(=O)N1CCCC1)c1ccc(-c2ccc3c(c2)ncn3-c2cccc(NC(=O)NCC(F)(F)F)c2)cc1 (stereo not drawn) [Example 17, N-(3-{5-[4-(1-Methyl-2-oxo-2-pyrrolidin-1-ylethyl)phenyl]-1H-benzimidazol-1-yl}phenyl)-N′-(2,2,2-trifluoroethyl)urea]	< 10
O=C(NCC(F)(F)F)Nc1cccc(-n2cnc3cc(-c4cccc(C(=O)NCCN5CCOCC5)c4)ccc32)c1 [Example 4, N-(2-Morpholin-4-ylethyl)-3-{1-[3-({[(2,2,2-trifluoroethyl)amino]carbonyl}amino)phenyl]-1H-benzimidazol-5-yl}benzamide]	< 10
O=C(NCC(F)(F)F)Nc1cccc(-n2cnc3cc(-c4ccc(C(=O)NCCN5CCOCC5)cc4)ccc32)c1 [Example 11, N-(2-Morpholin-4-ylethyl)-4-{1-[3-({[(2,2,2-trifluoroethyl)amino]carbonyl}amino)phenyl]-1H-benzimidazol-5-yl}benzamide]	< 10
CN1CCC(CNC(=O)c2ccc(-c3ccc4c(c3)ncn4-c3cccc(NC(=O)NCC(F)(F)F)c3)cc2)CC1 [Example 10, N-[(1-Methylpiperidin-4-yl)methyl]-4-{1-[3-({[(2,2,2-trifluoroethyl)amino]carbonyl}amino)phenyl]-1H-benzimidazol-5-yl}benzamide]	< 10
CN(C)CC(=O)N1CCC(n2cc(-c3cnn4c(-c5cccc(NC(=O)NCC(F)(F)F)c5)cnc4c3)cn2)CC1 [Example 33, N-{3-[7-(1-{1-[(Dimethylamino)acetyl]piperidin-4-yl}-1H-pyrazol-4-yl)imidazo[1,2-b]pyridazin-3-yl]phenyl}-N′-(2,2,2-trifluoroethyl)urea]	< 10
